These results are taken from patent US11168052B2, “Carbamate derivative compounds, processes for preparing them and their uses” (BIO-PHARM SOLUTIONS CO., LTD., priority 2016, dated 2021).

Assay [1] has as its system Post operation-induced pain model in rats. Put plainly: Antiallodynic activity on post operative-induced pain model (PO), von Frey test. In kind it is in vivo, Sprague-Dawley rats. The conditions noted are these: dose 200 mg/kg, von Frey paw withdrawal threshold relative to sham. An excerpt: Male Sprague-Dawley rats (Orient Bio, Korea, 230-250g) were habituated at least 3 days before surgery, and were allowed free access to food and water throughout the experimentation. Room temperature and humidity were maintained at 24±2 and 50±10%, respectively. The process of performing the post-operation model's surgery was adapted from Brennan et al (1996). At first, rats with allodynia (threshold valueless than 8 g) were excluded in Pre-von Frey Test. During the post-operation surgery, rats were anesthetized under gaseous anesthesia with 2% isoflurane. The rat was placed, lying face down, on 37 degree warm plate to prevent against hypothermia. The ipsilateral plantar aspect (left side) of the hind paw was prepared in a sterile manner with a 10% povidone-iodine solution. […]
For efficacy measure, the threshold value of group C was assigned 100% efficacy, and the percentage of the threshold values of group A compared to group C (for each different dose level) were calculated as the efficacies. Base on these efficacy values, ED50 was calculated using log fitting. […]
For pain threshold test, all animals were placed in a stainless steel meshed chamber and habituated for 30 min in the test cage. The tactile sensitivity of the ipsilateral hind paw was measured using the up-and-down method (Dixon, 1980) with seven von Frey monofilaments (0.4, 1, 2, 4, 6, 8, and 15 g) using 3 trials. […]

Assay [2] relates to BIC-induced clonic seizure in mice. Put plainly: Chemical induced seizure model (BIC). It is filed as in vivo, ICR mice. The settings on record: Mus musculus, ip. The procedure:
Male ICR mice (purchased from Orient Bio Inc. Korea) of body weight 19-26 g were used for these studies. The test materials were administered intraperitoneal route in a volume of 10 ul/g weight. Pharmacological effects of all the test materials were evaluated to compared test groups (n=6) with a control group (n=6). Control group was administrated vehicle, only. The peak time was determined by administration test material's random dose for 0.5 and 1 hour. The time that the most protect was defined peak time and ED50 was determined by other dose administration at peak time. BIC was dissolved in 0.9% saline and administered subcutaneously (s.c.) at its CD97 (convulsive dose 97%) the dose of BIC that produced clonic seizures in 97% into a loose fold of skin in the midline of the neck in a volume of 10 ul/g body weight. The animals were then transferred to observation cages and observed continuously for 30 min. Clonic seizure was elicited in approximately 95% of control group. Protection was defined as complete absence of a clonic seizure over the 30-min observation period. The time that the most protect was defined peak time and ED50 was determined by other dose administration at peak time. The effective dose of compound necessary to protect against seizures to 50% of controls (i.e., ED50) was determined by log probit analysis using Excel 2007 (Microsoft).

Assay [3] concerns PTZ (Pentylenetetrazol)-induced clonic seizure in mice. Put plainly: Anti-epilepsy activity, scPTZ test in mouse. It is filed as in vivo, ICR mice. The settings on record: ip. The text has this:
In this experiment, each test compound sample was formulated as described in Biological Experimental Example 1, and administered intraperitoneally to the test animals (mice; ICR or Rat; SD); Experimental animals, male ICR mice and male SD rats, were purchased from OrientBio or Nara biotech, Korea, and housed 4-5 mice per a cage for 4-5 days. The range of mice body weight was used between 19 and 26 grams and range of rats body weight was used between 100 and 130 grams. After Peak time (0.5, 1, 2 and 4 hr) from the administration, PTZ (Pentylenetetrazol) was administered subcutaneously in the concentration capable of inducing 97% intermittent convulsions (mice: 100-110 mg/kg?bw, 10 μl/g, or rats: 90-110 mg/kg?bw, 2 μl/g). If clonic seizure was not observed for at least 30 minutes in the PTZ administered animal, it can be considered that the test compound has anti-epilepsy activity. The median effective dose (ED50) is determined using 6 animals per a concentration (total three different concentrations), and calculated by Litchfield and Wicoxon log-probit method which is a dose-response relationship.

Assay [4] concerns Lithium-pilocarpine induced seizure in rats. Put plainly: Lithium-pilocarpine induced epilepsy test (LI-PILO), prevention test. It is filed as in vivo, Sprague-Dawley rats. As to the method: (§1) Male Sprague-Dawley rats (purchased from Orient Bio Inc. Korea) of body weight 175 grams were used for these studies and 3 rats per cage were housed for 4-5 days. On the day prior to SE, rats received 127 mg/kg lithium chloride (Sigma, St. Louis, Mo., U.S.A.) intraperitoneally (i.p.). Approximately 18-20 h following this treatment, rats were given an i.p. injection of the concentration capable of inducing 97% intermittent convulsions pilocarpine(Sigma, 30-43 mg/kg). An i.p. injection of 2 mg/kg methyl-scopolamine (Sigma) was administered 30 min prior to pilocarpine to block the effects of the muscarinic agonist on peripheral cholinergic receptors. Test drugs were dissolved in 20% tween80 (Sigma).
(§2) The drugs were administered intraperitoneally (i.p.) in a volume of 2 μl/g body weight. Pharmacological effects of all of the test materials were evaluated to compare test groups (n=6) with a control group (n=6). Control group was administered vehicle only. The efficacy was measured 0.5, 1, 2, or 4 hours after the administration of the test material. The time point that the most animals were protected was defined as peak time and the ED50 was determined at peak time. The animals were then transferred to observation cages and observed continuously for 90 min Seizure was elicited in approximately 95% of the control group. Protection was defined as complete absence of seizure grade 3-5 (Racine scale; Racine, 1972) over the 90-min observation period. The effective dose of the compound necessary to protect 50% of the animals against seizures compared to controls (i.e., ED50) was determined by a curve fitting program (Excel 2007, Microsoft).

For assay [5] the test system is unchanged. Put plainly: Lithium pilocarpine model (inter). It is filed as in vivo, Sprague-Dawley rats. The conditions noted are these: Rattus norvegicus. As to the method: as §1
as §2, with “Protection was defined as complete absence of seizure grade 3-5 (Racine scale; Racine, 1972) over the 90-min observation period. The effective dose of the compound necessary to protect 50% of the animals against seizures compared to controls (i.e., ED50) was determined by a curve fitting program (Excel 2007, Microsoft).” left out

The term ED50 denotes the midpoint of the dose-response relation.

Molecules are shown by their SMILES.

As for `NC(=O)O[C@@H]1CCc2cccc(Cl)c2[C@@H]1O` [Example 1, (1S, 2R)-8-chloro-1-hydroxy-1,2,3,4-tetrahydronaphthalen-2-yl carbamate], the “Post Operation Efficacy (% of sham threshold)” value in assay [1] is recorded as 200 (29.8%). Moreover, the median effective dose (ED50) in assay [2] was found to be 28.9 mg/kg; in assay [3], 12.5 mg/kg; in assay [4] (Rattus norvegicus, ip, prevention, read-out: Lithium pilocarpine model (pre) ED50), 22 mg/kg; in assay [5], 24.5 mg/kg.

Take `NC(=O)O[C@@H]1c2c(Cl)cccc2CC[C@@H]1O` [Example 19, (1R, 2S)-8-chloro-2-hydroxy-1,2,3,4-tetrahydronaphthalen-1-yl carbamate]: the “Lithium pilocarpine model (pre) efficacy %” value in assay [4] (i.p., dose 50 mg/kg) is recorded as 50%.
